Values after ≈ are worked out from the molar mass of the structure shown.
Assays:
[1] = test system: Mycobacterium tuberculosis; assay: Antimicrobial activity against Mycobacterium tuberculosis H37Rv ATCC 27294 after 7 days by resazurin microtiter assay; type: functional; conditions: H37Rv ATCC 27294, 168 h
[2] = test system: Mycobacterium tuberculosis; assay: Antimicrobial activity against nonreplicating Mycobacterium tuberculosis 18b by resazurin microtiter assay; type: functional
[3] = Cytotoxicity against human HepG2 cells after 24 hrs by MTT assay; type: cell-based
[4] = Aqueous solubility of compound at pH7 for 4 hrs by HPLC analysis; type: physicochemical; conditions: aqueous solution, pH 7
[5] = Selectivity index, ratio of CC50 for human HepG2 cells to MIC for Mycobacterium tuberculosis H37Rv ATCC 27294; type: toxicity, cell-based; conditions: read-out: Selectivity Index
[6] = Solubility of compound in phosphate buffer solution at pH 7.4 after 4 hrs by HPLC analysis; type: physicochemical
[7] = Solubility of compound in simulated gastric fluid at pH 1.2 after 4 hrs by HPLC analysis; type: ADME
[8] = Solubility of compound in simulated intestinal fluid at pH 6.8 after 4 hrs by HPLC analysis; type: ADME
[9] = Metabolic stability in rat liver microsomes assessed as compound remaining after 30 mins by LC-MS/MS analysis; type: ADME; conditions: read-out: Stability
[10] = Cmax in Balb/c mouse at 5 mg/kg, po by LC-MS/MS analysis; type: ADME, organism-based; set-up: dose 5 mg/kg, route oral; conditions: in vivo
[11] = (§1) AUC (0 to t) in Balb/c mouse at 5 mg/kg, po by LC-MS/MS analysis; type: ADME, organism-based; conditions: Balb/c, in vivo
[12] = Tmax in Balb/c mouse at 5 mg/kg, po by LC-MS/MS analysis; type: ADME, organism-based; conditions: in vivo
[13] = (§2) Half life in Balb/c mouse at 5 mg/kg, po by LC-MS/MS analysis; type: ADME, organism-based; conditions: Balb/c, in vivo
Mus musculus [14] = assay: Volume of distribution in Balb/c mouse at 5 mg/kg, po by LC-MS/MS analysis; type: ADME, organism-based; conditions: in vivo
[15] = Clearance in Balb/c mouse at 5 mg/kg, po by LC-MS/MS analysis; type: ADME, organism-based; conditions: in vivo
[16] = test system: Mycobacterium tuberculosis; assay: Antitubercular activity against Mycobacterium tuberculosis H37Rv infected in Balb/c mouse assessed as decrease in bacterial load at 25 mg/kg, po once daily for 5 days (reference value: 1.61 LogCFU ); type: functional
Mus musculus [17] = assay: Toxicity in Balb/c mouse at 25 mg/kg, po once daily for 5 days; type: organism-based; conditions: in vivo, 120 h
Mus musculus [18] = assay: Toxicity in Balb/c mouse at 20 mg/kg, po; type: organism-based; conditions: in vivo
Mus musculus [19] = assay: Toxicity in Balb/c mouse at 100 mg/kg, po; type: organism-based; conditions: in vivo
Mus musculus [20] = assay: as §1; type: ADME, organism-based; conditions: in vivo
Mus musculus [21] = assay: as §2; type: ADME, organism-based; conditions: in vivo

SMILES | MIC90 [1] [µg/mL] | MIC [2] [µg/mL] | solubility at 4 h [4] [µg/mL] | further results
C[C@]1(COc2ccc(N3CCC(Oc4ccc(OC(F)(F)F)cc4)CC3)cc2)Cn2cc([N+](=O)[O-])nc2O1 | 0.007 (≈ 0.0131 µM) | 0.37 (≈ 0.692 µM) | – | CC50 at 24 h [3]: 108 µg/mL (≈ 201 µM)
C[C@]1(COc2ccc(NC(=O)Nc3ccccc3F)cc2)Cn2cc([N+](=O)[O-])nc2O1 | 1.67 (≈ 3.91 µM) | – | – | –
C[C@]1(COc2ccc(S(=O)(=O)N3CCC(c4ccccc4)CC3)cc2)Cn2cc([N+](=O)[O-])nc2O1 | 0.67 (≈ 1.34 µM) | – | – | –
CCOc1ccc(NC(=O)Nc2ccc(OC[C@@]3(C)Cn4cc([N+](=O)[O-])nc4O3)cc2)cc1 | 0.5 (≈ 1.1 µM) | 1 (≈ 2.21 µM) | 6.66 (≈ 14.7 µM) | CC50 at 24 h [3]: > 20 µg/mL; selectivity ratio [5]: > 80
CC(C)(C)OC(=O)N1CCN(c2ccc(OC[C@@]3(C)Cn4cc([N+](=O)[O-])nc4O3)cc2)CC1 | 6.67 (≈ 14.5 µM) | – | – | –
C[C@]1(COc2ccc(S(=O)(=O)N3CCCC3)cc2)Cn2cc([N+](=O)[O-])nc2O1 | 1 (≈ 2.45 µM) | – | – | –
C[C@]1(COc2ccc(NC(=O)Nc3ccc(C(F)(F)F)cc3)cc2)Cn2cc([N+](=O)[O-])nc2O1 | 0.5 (≈ 1.05 µM) | – | < 1 | –
COc1ccc(S(=O)(=O)N2CCN(c3ccc(OC[C@@]4(C)Cn5cc([N+](=O)[O-])nc5O4)cc3)CC2)cc1 | 0.5 (≈ 0.944 µM) | – | < 1 | –
C[C@]1(COc2ccc(S(=O)(=O)N3CCN(c4cccc(Cl)c4)CC3)cc2)Cn2cc([N+](=O)[O-])nc2O1 | 0.83 (≈ 1.55 µM) | – | – | –
CC(C)(C)c1ccc(NC(=O)Nc2ccc(OC[C@@]3(C)Cn4cc([N+](=O)[O-])nc4O3)cc2)cc1 | 0.09 (≈ 0.193 µM) | – | < 1 | –
CCc1ccc(NC(=S)Nc2ccc(OC[C@@]3(C)Cn4cc([N+](=O)[O-])nc4O3)cc2)cc1 | 1 (≈ 2.2 µM) | – | – | –
C[C@]1(COc2ccc(NC(=O)Nc3ccc(Cl)cc3)cc2)Cn2cc([N+](=O)[O-])nc2O1 | 0.25 (≈ 0.563 µM) | 4 (≈ 9.01 µM) | 6.66 (≈ 15 µM) | CC50 at 24 h [3]: > 20 µg/mL; selectivity ratio [5]: > 80
CCOC(=O)N1CCN(S(=O)(=O)c2ccc(OC[C@@]3(C)Cn4cc([N+](=O)[O-])nc4O3)cc2)CC1 | 4 (≈ 8.07 µM) | – | – | –
C[C@]1(COc2ccc(NC(=S)Nc3ccc(OC(F)(F)F)cc3)cc2)Cn2cc([N+](=O)[O-])nc2O1 | 0.25 (≈ 0.491 µM) | – | < 1 | –
C[C@]1(COc2ccc(N3CCN(S(=O)(=O)c4ccccc4)CC3)cc2)Cn2cc([N+](=O)[O-])nc2O1 | 1 (≈ 2 µM) | – | – | –
Cc1ccc(S(=O)(=O)N2CCN(c3ccc(OC[C@@]4(C)Cn5cc([N+](=O)[O-])nc5O4)cc3)CC2)cc1 | 0.5 (≈ 0.974 µM) | – | < 1 | –

SMILES | MIC90 [1] [µg/mL] | MIC [2] [µg/mL] | solubility at 4 h [4] [µg/mL] | further results
Cc1ccc(NC(=S)Nc2ccc(OC[C@@]3(C)Cn4cc([N+](=O)[O-])nc4O3)cc2)cc1 | 0.83 (≈ 1.89 µM) | – | – | –
C[C@]1(COc2ccc(NC(=O)Nc3ccc(OC(F)(F)F)cc3)cc2)Cn2cc([N+](=O)[O-])nc2O1 | 0.67 (≈ 1.36 µM) | – | – | –
C[C@]1(COc2ccc(S(=O)(=O)N3CCN(C(=O)c4ccccc4)CC3)cc2)Cn2cc([N+](=O)[O-])nc2O1 | 4 (≈ 7.58 µM) | – | – | –
Cc1ccc(NC(=O)Nc2ccc(OC[C@@]3(C)Cn4cc([N+](=O)[O-])nc4O3)cc2)cc1 | 0.21 (≈ 0.496 µM) | – | < 1 | –
COc1ccc(NC(=O)Nc2ccc(OC[C@@]3(C)Cn4cc([N+](=O)[O-])nc4O3)cc2)cc1 | 2 (≈ 4.55 µM) | – | – | –
CC(C)(C)OC(=O)Nc1ccc(OC[C@@]2(C)Cn3cc([N+](=O)[O-])nc3O2)cc1 | 1.34 (≈ 3.43 µM) | – | – | –
COc1ccc(NC(=S)Nc2ccc(OC[C@@]3(C)Cn4cc([N+](=O)[O-])nc4O3)cc2)cc1 | 0.5 (≈ 1.1 µM) | > 8 | 8.66 (≈ 19 µM) | CC50 at 24 h [3]: > 20 µg/mL; selectivity ratio [5]: > 80
CCc1ccc(NC(=O)Nc2ccc(OC[C@@]3(C)Cn4cc([N+](=O)[O-])nc4O3)cc2)cc1 | 0.5 (≈ 1.14 µM) | – | < 1 | –
C[C@]1(COc2ccc(S(=O)(=O)N3CCOCC3)cc2)Cn2cc([N+](=O)[O-])nc2O1 | 0.37 (≈ 0.872 µM) | 1.34 (≈ 3.16 µM) | 20 (≈ 47.1 µM) | CC50 at 24 h [3]: > 20 µg/mL; selectivity ratio [5]: > 40; solubility at 4 h [6]: 20 µg/mL (≈ 47.1 µM); solubility at 4 h [7]: 20 µg/mL (≈ 47.1 µM); solubility at 4 h [8]: 20 µg/mL (≈ 47.1 µM); remaining at 0.5 h [9]: 99.3%; Cmax [10]: 640 ng/mL; AUC(0-t) [11]: 879 ng·h/mL; Tmax [12]: 0.5 h; half-life [13]: 1.99 h; Vd (Mus musculus [14]): 12.97 L/kg; CL/F [15]: 75.2 mL/min/kg; Activity [16]: 1.28 log10CFU; Activity (Mus musculus [17]): Non-toxic; Activity (Mus musculus [18]): Non-toxic; Activity (Mus musculus [19]): Non-toxic
C[C@]1(COc2ccc(N3CCN(S(=O)(=O)c4ccc(C(F)(F)F)cc4)CC3)cc2)Cn2cc([N+](=O)[O-])nc2O1 | 0.25 (≈ 0.44 µM) | – | < 1 | –
Cc1ccccc1NC(=O)Nc1ccc(OC[C@@]2(C)Cn3cc([N+](=O)[O-])nc3O2)cc1 | 1 (≈ 2.36 µM) | – | – | –
C[C@]1(COc2ccc(N3CCN(S(=O)(=O)c4ccc(F)cc4)CC3)cc2)Cn2cc([N+](=O)[O-])nc2O1 | 0.06 (≈ 0.116 µM) | > 8 | 8.33 (≈ 16.1 µM) | CC50 at 24 h [3]: > 20 µg/mL; selectivity ratio [5]: > 333
C[C@]1(COc2ccc(-n3cc(COc4ccc(OC(F)(F)F)cc4)nn3)cc2)Cn2cc([N+](=O)[O-])nc2O1 | 0.12 (≈ 0.225 µM) | 4 (≈ 7.51 µM) | < 1 | CC50 at 24 h [3]: > 20 µg/mL; selectivity ratio [5]: > 166; solubility at 4 h [6]: < 1 µg/mL; solubility at 4 h [7]: < 1 µg/mL; solubility at 4 h [8]: < 1 µg/mL; remaining at 0.5 h [9]: 90.8%; Cmax [10]: 540 ng/mL; AUCt (Mus musculus [20]): 7428 ng·h/mL; Tmax [12]: 2 h; t1/2 (Mus musculus [21]): 4.01 h; Vd (Mus musculus [14]): 0.377 L/kg; Activity (Mus musculus [17]): Non-toxic; Activity (Mus musculus [18]): Non-toxic; Activity (Mus musculus [19]): Non-toxic
C[C@]1(COc2ccc(S(=O)(=O)N3CCCCC3)cc2)Cn2cc([N+](=O)[O-])nc2O1 | 0.5 (≈ 1.18 µM) | 10.7 (≈ 25.3 µM) | 13.3 (≈ 31.6 µM) | CC50 at 24 h [3]: > 20 µg/mL; selectivity ratio [5]: > 40
COc1c(N2CCNC(C)C2)c(F)cc2c(=O)c(C(=O)O)cn(C3CC3)c12 (configuration not stated) [GATIFLOXACIN] | – | 1 (≈ 2.66 µM) | – | –
CO[C@H]1/C=C/O[C@@]2(C)Oc3c(C)c(O)c4c(O)c(c(/C=N/N5CCN(C)CC5)c(O)c4c3C2=O)NC(=O)/C(C)=C\C=C\[C@H](C)[C@H](O)[C@@H](C)[C@@H](O)[C@@H](C)[C@H](OC(C)=O)[C@@H]1C [RIFAMPIN] | 0.06 (≈ 0.0729 µM) | 2 (≈ 2.43 µM) | – | –

Reference: ChEMBL document CHEMBL3739292, “Synthesis and Biological Evaluation of Polar Functionalities Containing Nitrodihydroimidazooxazoles as Anti-TB Agents” (ACS Med Chem Lett, 2015)
